Measured values published in ChEMBL document CHEMBL1201862, “PubChem BioAssay data set” (2004).
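Exposure lasted 48 hours, with cells grown in 96-well plates and compounds tested at five concentrations. At the GI50, growth is halved.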 Activity calls are given as the source filed them. Rule as the data show it: active = GI50 up to about 1.1 µM and inactive = higher.

Experiments:
Assay in all cases: NCI tumour cell line growth inhibition, 48 h
HT-29 = tested on: HT-29
SN12C = tested on: SN12C
NCI-H23 = tested on: NCI-H23
MCF7 = tested on: MCF7
786-0 = tested on: 786-0
NCI/ADR-RES = tested on: NCI/ADR-RES
DU-145 = tested on: DU-145
NCI-H460 = tested on: NCI-H460
M14 = tested on: M14
U-251 = tested on: U-251
SK-MEL-28 = tested on: SK-MEL-28
ACHN = tested on: ACHN
OVCAR-8 = tested on: OVCAR-8
MOLT-4 = tested on: MOLT-4
HOP-92 = tested on: HOP-92
BT-549 = tested on: BT-549

SMILES | GI50 (HT-29) | GI50 (SN12C) | GI50 (NCI-H23) | GI50 (MCF7) | GI50 (786-0) | GI50 (NCI/ADR-RES) | GI50 (DU-145) | GI50 (NCI-H460) | GI50 (M14) | GI50 (U-251) | GI50 (SK-MEL-28) | GI50 (ACHN) | GI50 (OVCAR-8) | GI50 (MOLT-4) | GI50 (HOP-92) | GI50 (BT-549)
CN1N=C(c2ccncc2)OC1c1cccc(F)c1 (stereo unspecified) | > 100 µM (inactive) | > 100 µM (inactive) | > 100 µM (inactive) | > 100 µM (inactive) | > 100 µM (inactive) | > 100 µM (inactive) | > 100 µM (inactive) | > 100 µM (inactive) | > 100 µM (inactive) | > 100 µM (inactive) | > 100 µM (inactive) | > 100 µM (inactive) | > 100 µM (inactive) | > 100 µM (inactive) |  | 
CCOC(=O)c1sc2nc(SC)nc3c2c1NC(=O)CN3c1ccc(F)cc1 | 44.6 µM (inactive) | 24.6 µM (inactive) | 50.6 µM (inactive) | 87.3 µM (inactive) |  |  | 40.4 µM (inactive) | > 100 µM (inactive) | 37.9 µM (inactive) | 43.5 µM (inactive) | 8.18 µM (inactive) | 21.6 µM (inactive) | 22.1 µM (inactive) | > 100 µM (inactive) | 31.8 µM (inactive) | 19.5 µM (inactive)
C=C1C(=O)O[C@H]2C(=O)[C@H](C)CCC[C@@](C)(O)/C=C\C[C@@]3(C)O[C@@H]3C[C@@H]12 | 14.8 µM (inactive) | 17.1 µM (inactive) | 24.5 µM (inactive) | 18.7 µM (inactive) | 12.3 µM (inactive) | 39.4 µM (inactive) | 14.5 µM (inactive) | 26.5 µM (inactive) | 11.3 µM (inactive) | 18.3 µM (inactive) |  | 8.02 µM (inactive) | 19.9 µM (inactive) | < 0.01 µM (active) | 10.3 µM (inactive) | 
COP(=O)(O)C(N)Cc1c[nH]c2ccccc12 (stereo unspecified) | > 100 µM (inactive) | > 100 µM (inactive) | > 100 µM (inactive) | > 100 µM (inactive) |  | > 100 µM (inactive) | > 100 µM (inactive) | > 100 µM (inactive) | > 100 µM (inactive) | > 100 µM (inactive) | > 100 µM (inactive) | > 100 µM (inactive) | > 100 µM (inactive) | > 100 µM (inactive) | > 100 µM (inactive) | 
ClC1=C(Cc2ccccc2)Cc2ccc3c(c21)CCC3 | 22.6 µM (inactive) | 34.4 µM (inactive) | 19.7 µM (inactive) | 18.9 µM (inactive) | 30.4 µM (inactive) |  | 48.5 µM (inactive) |  | > 100 µM (inactive) | 19.1 µM (inactive) | 66.5 µM (inactive) | 29.9 µM (inactive) | 36.8 µM (inactive) | 19.1 µM (inactive) | 99.8 µM (inactive) | 31.1 µM (inactive)
CC1(C)[C@@H](Cn2nnc3c(N)ncnc32)CC[C@@]1(C)CO |  | > 100 µM (inactive) |  | > 100 µM (inactive) | > 100 µM (inactive) | > 100 µM (inactive) | > 100 µM (inactive) |  | > 100 µM (inactive) | > 100 µM (inactive) | > 100 µM (inactive) | > 100 µM (inactive) |  | < 0.01 µM (active) | > 100 µM (inactive) | 
CSc1n[n+](C)cc(N)c1N | > 100 µM (inactive) | > 100 µM (inactive) | > 100 µM (inactive) | > 100 µM (inactive) | > 100 µM (inactive) | > 100 µM (inactive) |  |  | > 100 µM (inactive) | > 100 µM (inactive) | > 100 µM (inactive) | > 100 µM (inactive) | > 100 µM (inactive) | > 100 µM (inactive) | 17.8 µM (inactive) | 87.1 µM (inactive)
CCC(C)NC1=NCC(C)S1 (stereo unspecified) | > 100 µM (inactive) | > 100 µM (inactive) | > 100 µM (inactive) | > 100 µM (inactive) |  |  | > 100 µM (inactive) | > 100 µM (inactive) | > 100 µM (inactive) | > 100 µM (inactive) | > 100 µM (inactive) | > 100 µM (inactive) |  | > 100 µM (inactive) | > 100 µM (inactive) | > 100 µM (inactive)
C=CCCCC1CCCNC1=S (stereo unspecified) | > 100 µM (inactive) | > 100 µM (inactive) | > 100 µM (inactive) | > 100 µM (inactive) | > 100 µM (inactive) |  | > 100 µM (inactive) | > 100 µM (inactive) | > 100 µM (inactive) | > 100 µM (inactive) | > 100 µM (inactive) | > 100 µM (inactive) | > 100 µM (inactive) | > 100 µM (inactive) | > 100 µM (inactive) | > 100 µM (inactive)
C=CCNC(=O)NNC(O)(C(=O)OCC)C(F)(F)F (stereo unspecified) | > 100 µM (inactive) | > 100 µM (inactive) | > 100 µM (inactive) | > 100 µM (inactive) | > 100 µM (inactive) | > 100 µM (inactive) | > 100 µM (inactive) | > 100 µM (inactive) | > 100 µM (inactive) | > 100 µM (inactive) | > 100 µM (inactive) | > 100 µM (inactive) | > 100 µM (inactive) | > 100 µM (inactive) | > 100 µM (inactive) | 
Cc1ccc2c(c1)Nc1ccccc1P2(=O)O | > 100 µM (inactive) | > 100 µM (inactive) | > 100 µM (inactive) |  | > 100 µM (inactive) | > 100 µM (inactive) | > 100 µM (inactive) | > 100 µM (inactive) | > 100 µM (inactive) | > 100 µM (inactive) | > 100 µM (inactive) | > 100 µM (inactive) | > 100 µM (inactive) | > 100 µM (inactive) | > 100 µM (inactive) | 
COP(=O)(OC)/C(=C\C1=CN(C(c2ccccc2)(c2ccccc2)c2ccccc2)CN1)NC=O | 15 µM (inactive) | 18.3 µM (inactive) | 18.2 µM (inactive) |  |  | 15.8 µM (inactive) | 20.2 µM (inactive) | 14 µM (inactive) | 19.9 µM (inactive) | 16.3 µM (inactive) | 17.7 µM (inactive) | 15.1 µM (inactive) | 21.3 µM (inactive) | 12.8 µM (inactive) | 10.3 µM (inactive) | 
CCNC(=O)Nc1cccc(NC(=O)NCC)n1 | 76.4 µM (inactive) | > 100 µM (inactive) | > 100 µM (inactive) | 57.1 µM (inactive) | > 100 µM (inactive) |  | > 100 µM (inactive) | > 100 µM (inactive) | > 100 µM (inactive) | > 100 µM (inactive) | > 100 µM (inactive) | > 100 µM (inactive) | > 100 µM (inactive) | > 100 µM (inactive) | 50.4 µM (inactive) | > 100 µM (inactive)
N=C1N(c2ccccc2)C(=S)/C(=N/c2ccccc2)N1c1ccccc1 | 4.37 µM (inactive) | 13.3 µM (inactive) | 6.03 µM (inactive) | 1.84 µM (inactive) | 9.68 µM (inactive) | 18.4 µM (inactive) | 17.4 µM (inactive) | 11.5 µM (inactive) | 9.46 µM (inactive) | 14.2 µM (inactive) | 16.8 µM (inactive) | 8.28 µM (inactive) | 4.95 µM (inactive) | 1.29 µM (inactive) | 9.48 µM (inactive) | 
COc1ccc(C2=N/C(=C\c3ccccc3)C(=O)O2)cc1 | > 100 µM (inactive) |  |  | > 100 µM (inactive) |  | 16.7 µM (inactive) |  | > 100 µM (inactive) | > 100 µM (inactive) | 62.7 µM (inactive) | > 100 µM (inactive) | > 100 µM (inactive) | 30.8 µM (inactive) | 13.3 µM (inactive) | > 100 µM (inactive) | 
